Experimental data from ChEMBL document CHEMBL1201862, “PubChem BioAssay data set” (2004).
The source made the active and inactive calls.

Assays:
cells [1] = assay type: functional
[2] = viability of PTEN-deleted HCT116 cells – cell-based, HCT116 PTEN knockout, dose response (AID 1047); assay type: functional;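 note: HCT116 colon tumor cells with PTEN knocked out; cells exposed to compound for 60 hours before readout; potency for loss of cell viability measured by luminescence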
[3] = THP-1 cell cytotoxicity, dose response, cytotoxicity control for non-replicating M. tuberculosis project (AID 489025); assay type: functional
[4] = Vero E6 cell cytotoxicity, dose response, cytotoxicity control for non-replicating M. tuberculosis project, secondary assay (AID 492998); assay type: functional, VeroE6; settings: Vero C1008
[5] = viability of HCT116 lacking mutant beta-catenin – cell-based, human colon tumor, dose response (AID 1045); assay type: functional;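 note: HCT116 colon tumor cells with beta catenin knocked out; cells exposed to compound for 60 hours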
[6] = HepG2 cell cytotoxicity, dose response, cytotoxicity control for non-replicating M. tuberculosis project (AID 489018); assay type: functional; settings: Mycobacterium tuberculosis
cells [7] = assay type: functional, cell-based
cells [8] = assay type: functional, cell-based; remark: listed apart in the source
Cytochrome P450 2C19 = Cytochrome P450 2C19 (Homo sapiens, UniProt P33261); experiment: Cytochrome panel assay with activity outcomes. Panel member name: p450-cyp2c19 Compounds with AC50 equal or less than 10 uM are considered active; assay type: functional; settings: read-out: AC50
Cytochrome P450 2C9 [9] = molecular target: T1, Cytochrome P450 2C9 (Homo sapiens, UniProt P11712)
Cytochrome P450 3A4 = Cytochrome P450 3A4 (Homo sapiens, UniProt P08684);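 note: CYP3A4 tested as one member of a cytochrome P450 panel screen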
[10] = molecular target: T2, Endoribonuclease toxin MazF (Escherichia coli K-12, UniProt P0AE70); experiment: activation of MazEF endoribonuclease cleavage – biochemical, fluorescence, single-stranded RNA substrate, uHTS hits, dose response (AID 588481); assay type: functional
T2 sequence (P0AE70 whole entry): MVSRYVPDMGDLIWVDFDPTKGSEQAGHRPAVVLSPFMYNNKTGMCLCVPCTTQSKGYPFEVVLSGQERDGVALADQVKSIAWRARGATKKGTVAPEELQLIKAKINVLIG

[11] = molecular target: T2, Endoribonuclease toxin MazF; experiment: substrate-only fluorescence increase artefacts – biochemical, single-stranded RNase substrate, counter-screen for MazEF activator project, dose response (AID 588502); assay type: functional
[12] = luciferase reporter signal suppression in cells – H4 neuroglioma cells, luminescence, dose response (AID 1990); assay type: functional, cell-based
[13] = Luminescence Cell-Based Dose Response HTS to Identify Inhibitors of 5'UTR Stem-Loop Driven Prion Protein mRNA Translation in H4 Neuroglioblastoma Cells. [Related pubchem assays: 1827 (Project Summary), 1813 (Primary HTS)]; assay type: functional
[14] = alpha-synuclein stem-loop luciferase translation blockers – H4 neuroglioma cells, luminescence, confirmation (AID 1988); assay type: functional, cell-based
[15] = NIH-3T3 fibroblast cytotoxicity, dose response, cytotoxicity control, cell-based, fluorescence, Alamar Blue, secondary assay (AID 2327); assay type: functional;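 note: NIH-3T3 mouse fibroblasts cultured with fluconazole at 8 µg/mL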
Streptococcus = experiment: GAS UMAA2166 growth inhibition – luminescence, BacTiterGlo, counter-screen for streptokinase expression inhibitor project, dose response (AID 1915); assay type: functional, organism-based;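 note: potency for reduction of bacterial viability or growth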
[16] = fluconazole-exposed Candida albicans growth modulators – fluorescence, retest, confirmation (AID 2467); assay type: functional, cell-based
[17] = test system: Streptococcus sp. 'group A'; experiment: Streptococcus pyogenes SK(-)GAS viability under kanamycin – luminescence, BacTiterGlo, confirmation, counter-screen for streptokinase expression inhibitor project, dose response (AID 1900); assay type: functional, organism-based
Vero = experiment: cells; assay type: functional; settings: Chlorocebus sabaeus
Protein skinhead-1 = molecular target: T3, Protein skinhead-1 (Caenorhabditis elegans, UniProt P34707); assay type: functional
T3 sequence (P34707 whole entry): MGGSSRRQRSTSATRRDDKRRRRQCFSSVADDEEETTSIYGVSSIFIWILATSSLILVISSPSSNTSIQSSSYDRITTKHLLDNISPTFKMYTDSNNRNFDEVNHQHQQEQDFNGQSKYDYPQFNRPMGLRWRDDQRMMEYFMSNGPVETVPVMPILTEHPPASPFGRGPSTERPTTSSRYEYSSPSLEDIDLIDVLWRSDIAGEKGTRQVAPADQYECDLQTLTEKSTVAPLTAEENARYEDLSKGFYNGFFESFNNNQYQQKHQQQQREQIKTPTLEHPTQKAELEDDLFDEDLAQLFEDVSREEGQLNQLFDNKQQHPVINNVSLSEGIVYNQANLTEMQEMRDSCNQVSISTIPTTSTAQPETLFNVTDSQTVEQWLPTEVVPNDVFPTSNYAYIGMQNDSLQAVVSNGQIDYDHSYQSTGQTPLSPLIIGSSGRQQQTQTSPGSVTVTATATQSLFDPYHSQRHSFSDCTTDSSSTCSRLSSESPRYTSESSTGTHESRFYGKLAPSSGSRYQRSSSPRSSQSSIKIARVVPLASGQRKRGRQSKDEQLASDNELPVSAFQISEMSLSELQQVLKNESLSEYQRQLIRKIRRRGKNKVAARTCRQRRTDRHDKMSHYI

INS1 = experiment: INS-1E survival protection against cytokine death – cell-based, luminescence, retest, dose response (AID 449756); assay type: functional; settings: Rattus norvegicus;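 note: cell death triggered by IL-1 beta plus TNF-alpha plus IFN-gamma mixture; protective hits raise ATP signal compared with cytokine alone wells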
[18] = molecular target: T4, Heat shock factor protein 1 (Mus musculus, UniProt P38532); experiment: enhancement of HSF1-driven luciferase signal – cell-based, NIH3T3, luminescence, dose retest, confirmation (AID 435004); assay type: functional;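 note: stress induced by proteasome inhibitor MG132 added 30 min after compound; luciferase reporter driven by HSF1 response element in NIH3T3 cells; actives raise luminescence as potentiators of the MG132 stress response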
T4 sequence (P38532 whole entry): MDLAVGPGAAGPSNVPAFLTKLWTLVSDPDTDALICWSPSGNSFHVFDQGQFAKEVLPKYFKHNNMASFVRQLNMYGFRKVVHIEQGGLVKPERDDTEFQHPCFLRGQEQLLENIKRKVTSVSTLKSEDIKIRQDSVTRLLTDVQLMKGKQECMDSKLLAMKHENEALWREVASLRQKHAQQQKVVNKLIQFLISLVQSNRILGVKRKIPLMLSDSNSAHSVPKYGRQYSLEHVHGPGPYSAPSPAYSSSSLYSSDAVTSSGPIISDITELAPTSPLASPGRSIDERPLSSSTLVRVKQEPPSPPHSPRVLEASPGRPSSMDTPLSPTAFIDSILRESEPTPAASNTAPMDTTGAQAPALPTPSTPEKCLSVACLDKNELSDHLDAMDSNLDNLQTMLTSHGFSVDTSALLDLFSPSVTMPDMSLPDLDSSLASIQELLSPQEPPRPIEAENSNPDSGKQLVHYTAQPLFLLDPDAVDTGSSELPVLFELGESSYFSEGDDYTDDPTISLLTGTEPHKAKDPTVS

[19] = reduction of Shn3 3'UTR-driven luciferase in osteoblasts – cell-based, Clone20 osteoblasts, firefly luciferase, cherry-picked, dose response (AID 624132); assay type: functional;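 note: firefly luciferase luminescence from reporter carrying the Shn3 3'UTR in osteoblasts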
[20] = non-specific 3'UTR reporter inhibition in Clone20-Shn3RL – cell-based, Renilla luciferase, cherry-picked, counter-screen for Shn3 inhibitor project, dose response (AID 624133); assay type: functional
Streptokinase A = molecular target: T5, Streptokinase A (Streptococcus pyogenes serotype M1, UniProt P10520); experiment: viability-normalized secreted streptokinase activity reduction – plasminogen activation absorbance, OD405, dose response (AID 1914); assay type: functional, Streptococcus pyogenes M1 GAS;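 note: secreted streptokinase activity via plasminogen activation per viability signal from cell pellet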
T5 sequence (P10520 whole entry): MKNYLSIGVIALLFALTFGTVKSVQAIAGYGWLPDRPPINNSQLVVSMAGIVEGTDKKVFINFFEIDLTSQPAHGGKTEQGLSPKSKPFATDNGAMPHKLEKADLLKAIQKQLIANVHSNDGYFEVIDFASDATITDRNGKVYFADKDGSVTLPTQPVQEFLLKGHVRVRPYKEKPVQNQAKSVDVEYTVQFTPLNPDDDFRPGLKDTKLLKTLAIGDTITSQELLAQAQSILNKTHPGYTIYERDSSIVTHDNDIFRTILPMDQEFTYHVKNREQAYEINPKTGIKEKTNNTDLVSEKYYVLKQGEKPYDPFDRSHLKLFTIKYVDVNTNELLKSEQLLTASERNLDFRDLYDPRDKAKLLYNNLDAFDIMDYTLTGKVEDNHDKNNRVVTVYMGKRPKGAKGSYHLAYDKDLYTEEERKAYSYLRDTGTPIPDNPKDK

[21] = molecular target: FAD-linked sulfhydryl oxidase ALR (Homo sapiens, UniProt P55789); experiment: ALR-catalysed DTT oxidation blockers – biochemical, H2O2 detection, luminescence, cherry-pick, dose response (AID 493248)
Large T antigen = Large T antigen (Simian virus 40, UniProt P03070); assay type: functional, Betapolyomavirus macacae;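 note: Confirmatory-stage PubChem screen for compounds that inhibit SV40 T antigen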
Cytochrome P450 2C9 [22] = molecular target: T1, Cytochrome P450 2C9; remark: listed apart in the source
Cytochrome P450 2D6 = Cytochrome P450 2D6 (Homo sapiens, UniProt P10635);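 note: CYP2D6 member of a cytochrome P450 panel assay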
H9c2 = experiment: cells; assay type: functional, cell-based; settings: Rattus norvegicus, H9c2, Myocardium
[23] = Luminescence Cell-Based Dose Retest to Confirm Inhibitors of Cancer Stem Cells. [Related pubchem assays (depositor defined):AID2717, AID2721]; assay type: functional; settings: Homo sapiens

Chain of Cytochrome P450 2C19 (P33261 whole entry): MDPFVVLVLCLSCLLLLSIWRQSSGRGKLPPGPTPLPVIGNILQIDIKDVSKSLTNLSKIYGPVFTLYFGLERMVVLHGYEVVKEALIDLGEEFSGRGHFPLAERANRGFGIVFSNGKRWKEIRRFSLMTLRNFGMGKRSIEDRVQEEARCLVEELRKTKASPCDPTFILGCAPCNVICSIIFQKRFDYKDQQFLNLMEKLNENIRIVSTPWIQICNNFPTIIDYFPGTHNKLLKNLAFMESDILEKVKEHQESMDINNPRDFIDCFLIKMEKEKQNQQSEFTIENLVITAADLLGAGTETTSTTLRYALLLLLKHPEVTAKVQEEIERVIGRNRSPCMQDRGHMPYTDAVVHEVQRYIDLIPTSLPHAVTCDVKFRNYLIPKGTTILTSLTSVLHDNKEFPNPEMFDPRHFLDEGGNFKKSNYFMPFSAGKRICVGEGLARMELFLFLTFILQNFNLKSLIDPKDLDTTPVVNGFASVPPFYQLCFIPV
T1 sequence (P11712 whole entry): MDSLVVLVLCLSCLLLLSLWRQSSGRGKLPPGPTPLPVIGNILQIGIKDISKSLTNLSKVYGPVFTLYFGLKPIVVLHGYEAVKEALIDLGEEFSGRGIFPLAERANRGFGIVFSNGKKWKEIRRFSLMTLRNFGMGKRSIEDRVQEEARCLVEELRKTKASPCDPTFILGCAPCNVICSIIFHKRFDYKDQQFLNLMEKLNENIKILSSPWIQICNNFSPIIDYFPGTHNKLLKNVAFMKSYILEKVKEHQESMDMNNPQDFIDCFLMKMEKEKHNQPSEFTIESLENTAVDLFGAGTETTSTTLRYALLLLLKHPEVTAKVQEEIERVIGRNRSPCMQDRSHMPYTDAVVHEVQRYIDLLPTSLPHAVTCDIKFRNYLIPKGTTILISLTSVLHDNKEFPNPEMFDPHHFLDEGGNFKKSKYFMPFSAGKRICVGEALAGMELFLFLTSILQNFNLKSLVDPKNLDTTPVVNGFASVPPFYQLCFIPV
Chain of FAD-linked sulfhydryl oxidase ALR (P55789 whole entry): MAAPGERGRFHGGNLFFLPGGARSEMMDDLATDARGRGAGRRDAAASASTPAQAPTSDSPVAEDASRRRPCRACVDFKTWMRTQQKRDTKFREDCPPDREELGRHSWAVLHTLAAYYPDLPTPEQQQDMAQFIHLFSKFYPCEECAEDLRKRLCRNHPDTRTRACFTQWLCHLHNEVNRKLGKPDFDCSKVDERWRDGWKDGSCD
Chain of Cytochrome P450 2D6 (P10635 whole entry): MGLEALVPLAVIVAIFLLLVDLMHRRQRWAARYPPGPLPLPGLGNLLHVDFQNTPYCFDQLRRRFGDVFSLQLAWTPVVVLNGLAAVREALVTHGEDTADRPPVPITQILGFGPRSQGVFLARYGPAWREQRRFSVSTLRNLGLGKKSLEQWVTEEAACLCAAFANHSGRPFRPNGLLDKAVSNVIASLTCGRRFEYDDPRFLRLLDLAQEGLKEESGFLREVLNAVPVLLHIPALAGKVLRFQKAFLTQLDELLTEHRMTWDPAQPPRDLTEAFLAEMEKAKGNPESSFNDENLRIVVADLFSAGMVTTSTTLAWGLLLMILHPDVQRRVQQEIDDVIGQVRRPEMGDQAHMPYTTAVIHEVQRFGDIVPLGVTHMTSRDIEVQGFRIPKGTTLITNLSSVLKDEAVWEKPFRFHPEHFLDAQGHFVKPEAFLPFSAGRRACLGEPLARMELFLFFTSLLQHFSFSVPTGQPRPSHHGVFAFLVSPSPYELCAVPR
Chain of Cytochrome P450 3A4 (P08684 whole entry): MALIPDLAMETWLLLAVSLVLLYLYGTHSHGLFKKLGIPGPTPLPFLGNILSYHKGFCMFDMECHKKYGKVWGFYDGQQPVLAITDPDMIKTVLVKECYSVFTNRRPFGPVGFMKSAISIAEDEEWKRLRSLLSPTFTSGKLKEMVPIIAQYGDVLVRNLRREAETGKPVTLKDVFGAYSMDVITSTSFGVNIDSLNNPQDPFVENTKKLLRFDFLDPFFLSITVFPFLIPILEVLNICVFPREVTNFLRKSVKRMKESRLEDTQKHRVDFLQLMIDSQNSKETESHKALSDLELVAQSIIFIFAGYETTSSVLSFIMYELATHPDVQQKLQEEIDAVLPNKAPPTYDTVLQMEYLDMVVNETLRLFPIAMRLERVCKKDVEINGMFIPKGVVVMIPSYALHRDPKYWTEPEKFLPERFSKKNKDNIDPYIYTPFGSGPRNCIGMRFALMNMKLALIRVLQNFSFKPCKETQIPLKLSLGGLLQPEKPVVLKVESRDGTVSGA
Chain of Large T antigen (P03070 whole entry): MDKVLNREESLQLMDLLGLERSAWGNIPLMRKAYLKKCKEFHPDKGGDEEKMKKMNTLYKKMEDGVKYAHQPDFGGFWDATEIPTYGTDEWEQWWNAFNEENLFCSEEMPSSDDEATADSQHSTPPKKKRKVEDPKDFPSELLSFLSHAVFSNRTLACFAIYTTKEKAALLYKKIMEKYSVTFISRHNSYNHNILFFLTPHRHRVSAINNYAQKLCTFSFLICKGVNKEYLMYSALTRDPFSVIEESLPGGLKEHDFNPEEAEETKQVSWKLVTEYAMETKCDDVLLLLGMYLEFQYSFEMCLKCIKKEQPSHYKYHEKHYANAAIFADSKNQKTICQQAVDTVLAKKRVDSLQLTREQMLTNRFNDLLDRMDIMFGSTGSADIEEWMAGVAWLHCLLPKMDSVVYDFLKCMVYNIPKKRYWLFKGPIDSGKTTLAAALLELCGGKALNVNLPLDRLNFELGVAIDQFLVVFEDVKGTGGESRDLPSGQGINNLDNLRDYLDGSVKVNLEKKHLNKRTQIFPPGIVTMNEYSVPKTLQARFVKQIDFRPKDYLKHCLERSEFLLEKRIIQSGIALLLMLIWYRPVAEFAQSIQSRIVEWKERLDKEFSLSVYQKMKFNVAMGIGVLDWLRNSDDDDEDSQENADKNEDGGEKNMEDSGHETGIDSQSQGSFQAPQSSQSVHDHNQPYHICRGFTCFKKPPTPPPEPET

## CCOc1cc(CNCCO)cc(Br)c1OCc1ccc(Cl)cc1
Cells [1]
  IC50: 26.9 µM (active)
[2]
  EC50: 7.29 µM (active)
[3]
  CC50: 9.41 µM (active)
[4]
  CC50: 12.7 µM (active)
[5]
  EC50: 7.16 µM (active)
[6]
  CC50: 11 µM (active)

## O=C(Cc1ccc(S(=O)(=O)N2CCOCC2)s1)Nc1ccc(S(=O)(=O)N2CCCCC2)cc1
Cells [7]
  EC50: > 350 µM (not active)
Cells [8]
  EC50: > 350 µM (not active)

## CCCCn1nc2cc(C(=O)NCC3CC3)ccc2c1OCC
Cytochrome P450 2C19
  AC50: 14.1 µM (inconclusive)
Cytochrome P450 2C9 [9]
  AC50: inconclusive

## Cl.Fc1ccc(CCNCc2cccc(Cl)c2)cc1
Cytochrome P450 3A4
  AC50: 12.6 µM (inconclusive)
Cytochrome P450 2C19
  AC50: 1 µM (inconclusive)
Cytochrome P450 2C9 [9]
  AC50: inconclusive

## CC(=O)Nc1ccc2nc(NC(=O)COc3ccccc3C)sc2c1
Cells [7]
  EC50: > 350 µM (not active)
Cells [8]
  EC50: > 350 µM (not active)

## CCOc1ccc(C(=O)Cc2cc(OC)c(OC)cc2[N+](=O)[O-])cc1
Cytochrome P450 2C19
  AC50: 1.41 µM (inconclusive)
Cytochrome P450 2C9 [9]
  AC50: inconclusive

## COc1ccc(CN2C(=O)NC(=O)/C(=C/c3ccc[nH]3)C2=O)cc1
[10]
  EC50: > 99 µM (inactive)
[11]
  EC50: > 99 µM (inactive)

## C=CCn1c(C)cc(C(=O)CN2C(=O)c3ccccc3C2=O)c1C
[12]
  EC50: 10.1 µM (inconclusive)
[13]
  EC50: 18.7 µM (active)
[14]
  EC50: 8.53 µM (active)
Cytochrome P450 2C9 [9]
  AC50: inconclusive

## COc1ccc(/C=C/c2cc(=O)c3cc(Cl)ccc3o2)cc1
[10]
  EC50: > 99 µM (inactive)
[11]
  EC50: 38 µM (inactive)

## CCc1c(O)oc2nnc(C)c-2c1C
Cytochrome P450 2C19
  AC50: 11.2 µM (inconclusive)
Cytochrome P450 2C9 [9]
  AC50: inconclusive

## COc1ccc(C(=O)NC(=S)NNC(=O)c2ccccc2C)cc1
[15]
  EC50: > 150 µM (inconclusive)
Streptococcus
  EC50: 2.83 µM (active)
[16]
  EC50: 1.69 µM (active)
[17]
  EC50: 1.31 µM (active)
Vero
  CC50: > 25 µM (active)

## COC(=O)c1ccc2c(=O)n(Cc3ccc(C(=O)NCCCN4CCC(C)CC4)cc3)c(=S)[nH]c2c1
Vero
  CC50: 20.9 µM (active)

## COC(=O)[C@H](CCSC)NC(=O)c1cccnc1SC
Cells [7]
  EC50: > 350 µM (not active)
Cells [8]
  EC50: > 350 µM (not active)

## CCOC(=O)COn1c(-c2cccc(Cl)c2)nc2ccc([N+](=O)[O-])cc21
Cells [1]
  IC50: 28.9 µM (active)
[4]
  CC50: > 20 µM (active)
Protein skinhead-1
  IC50: > 100 µM (inactive)

## CCS(=O)(=O)c1ncc(Cl)c(C(=O)Nc2ccccc2OC)n1
INS1
  AC50: 38.9 µM (active)
[18]
  EC50: 8.04 µM (active)
[19]
  AC50: 3.71 µM (active)
[20]
  AC50: 4.81 µM (active)

## CCCCCCCCCCCC(=O)c1c(O)cccc1O
Streptococcus
  EC50: 7.15 µM (active)
[18]
  EC50: 60.1 µM (active)
Streptokinase A
  EC50: > 150 µM (not active)
[17]
  EC50: 1.53 µM (active)

## C=CCSc1cc(C)nc2c(-c3ccccc3)cnn12
Cells [7]
  EC50: > 350 µM (not active)
Cells [8]
  EC50: 26.8 µM (active)

## CCN(CC)c1ccc(NC(=O)c2cccnc2)c(C)c1
[21]
  AC50: 0.877 µM (active)
Large T antigen
  IC50: 77.3 µM (active)
Cytochrome P450 2C19
  AC50: 39.8 µM (inconclusive)
Cytochrome P450 2C9 [9]
  AC50: inconclusive

## O=[N+]([O-])c1ccc(NN=Cc2ccc3c(c2)OCO3)nc1
[10]
  EC50: 40.5 µM (inactive)
[11]
  EC50: > 99 µM (inactive)

## CC(=O)/N=c1\sccn1CC(=O)c1ccc([N+](=O)[O-])cc1
Cytochrome P450 2C9 [22]
  AC50: 0.0794 µM (inconclusive)
[18]
  EC50: > 260 µM (inactive)
Cytochrome P450 2D6
  AC50: 14.1 µM (inconclusive)

## CCn1c(/C=N/NC(=O)c2ccc(OC)cc2)nc2ccccc21
Cells [1]
  IC50: 15.7 µM (active)
[3]
  CC50: 24.1 µM (active)
[4]
  CC50: 17.9 µM (active)
[6]
  CC50: > 20 µM (active)
H9c2
  IC50: > 79 µM (inactive)

## COc1cc(N/N=C(\C)c2ccc(O)c(C)c2)nc(-c2ccccc2)n1
[23]
  AC50: 3.99 µM (active)
Vero
  CC50: > 25 µM (active)

## CC(C)c1ccc2[nH]c3c(c2c1)CCC/C3=N\NC(=O)c1ccncc1
Cells [1]
  IC50: 2 µM (active)
Streptococcus
  EC50: 16.9 µM (active)
[3]
  CC50: 26 µM (active)
[4]
  CC50: 11.6 µM (active)
[6]
  CC50: > 20 µM (active)
Streptokinase A
  EC50: > 150 µM (not active)
[17]
  EC50: 3.54 µM (active)
